Source: patent US11591341B2 (ALIGOS THERAPEUTICS, INC., priority 2019, dated 2023)

System: HBV
Test: HBV-DNA Antiviral Assay Using HepG2.117 Cells (intracellular HBV DNA by qPCR)
Format: cell-based, hepatitis B virus (genotype D)
Conditions: Hepatitis B virus, HepG2.117
Description: The following assay procedure describes the HBV antiviral assay, using HepG2.117 cells, which carry a stably integrated genotype D HBV genome under the control of a Tet-off promoter, and intracellular HBV DNA quantification as endpoint. Cell viability is assessed in parallel by measuring the intracellular ATP content using ATPlite (Perkin Elmer).
On day 0, HepG2.117 cells (which are maintained in routine cell culture with doxycycline present in the medium at a final concentration of 1 μg/mL) were seeded in 96-well plates (white with clear bottom) at a density of 2.0×10^4 cells/well (0.1 mL/well) in medium without doxycycline to induce pgRNA transcription and subsequent formation of HBV particles. The cells were incubated at 37° C. and 5% CO2.
On day 1, medium was removed from each well, the test articles were diluted in culture medium without doxcycyline and 100 μL was added to cell culture wells (9 concentrations, 4-fold dilution). For each plate, 6 untreated (merely DMSO) wells were included. The final concentration of DMSO in the culture medium was 2%. Each plate was prepared in duplicate (one for HBV DNA extraction, one for ATPlite measurement). The cells were incubated at 37° C. and 5% CO2 for 3 days.
On day 4, cell viability was assessed using ATPlite and cell lysates were prepared for HBV DNA extraction and subsequent quantification by qPCR.
Medium was removed from each well and 100 μL of 0.33% NP-40 in H2O was added to each well. Plates were sealed, incubated at 4° C. for 5 mins, vortexed extensively and centrifuged briefly. Next, 35 μL of lysate was added to 65 μL QuickExtract DNA Extraction Solution (Epicentre) in a PCR plate for each well. PCR plate was incubated at 65° C. for 6 mins, 98° C. for 2 mins and finally cooled to 4° C. HBV DNA was then quantified by qPCR with HBV-specific primers and probes as specified in Table 3 using the Bio-Rad SSOAdvanced Universal Probes Supermix on a CFX96 machine (Bio-Rad). The PCR cycle program consisted of 95° C. for 3 mins, followed by 40 cycles at 95° C. for 10 sec and 60° C. for 30 sec.
A DNA standard was prepared by dilution of an IDT gBlock corresponding to the amplicon with concentrations ranging from 10^2 to 10^8 copies/input (i.e. per 4 μL) and used to generate a standard curve by plotting Cq values vs. HBV DNA standard concentration. The quantity of HBV DNA in each sample was determined by interpolating from the standard curve.
Cell viability was calculated as follows: % Cell viability=(luminescence value of test sample)/(average luminescence value of 2% DMSO control)×100%. HBV DNA inhibition was calculated as follows: 100−(HBV DNA copy number of test sample)/(average HBV DNA copy number of 2% DMSO control)×100%. No normalization to entecavir was required due to the excellent dynamic window of this assay. The CC50, EC50 and EC90 values were determined by dose-response curves fitted by GraphPad Prism using “log (agonist) vs. response—Variable slope”.

`CC[C@H](NC(=O)c1c2n(c(=O)n1-c1ccc(OC)cc1)CCN(C(=O)c1ccc(Br)c(Cl)c1)C2)c1ccccc1` (stereo in doubt) [Example 151, 7-(4-bromo-3-chloro-benzoyl)-2-(4-methoxyphenyl)-3-oxo-N-[rac-(1S)-1-phenylpropyl]-6,8-dihydro-5H-imidazo[1,5-a]pyrazine-1-carboxamide] and `COc1ccc(-n2c(C(=O)NC(c3ccccc3)C3CC3)c3n(c2=O)CCN(C(=O)c2ccc(Br)c(Cl)c2)C3)cc1` (racemic) [Example 176, 7-(4-bromo-3-chloro-benzoyl)-2-(4-methoxyphenyl)-3-oxo-N-[rac-(S)-cyclopropyl(phenyl)methyl]-6,8-dihydro-5H-imidazo[1,5-a]pyrazine-1-carboxamide] fall in the same range of EC50: 100 to 500 nM for the first, 100 to 500 nM for the second.

`CS(=O)(=O)c1cccc(-n2c(C(=O)NCc3ccccc3)c3n(c2=O)CCN(C(=O)c2ccc(Br)c(Cl)c2)C3)c1` [Example 46, N-benzyl-7-(4-bromo-3-chloro-benzoyl)-2-(3-methylsulfonylphenyl)-3-oxo-6,8-dihydro-5H-imidazo[1,5-a]pyrazine-1-carboxamide] and `NS(=O)(=O)c1cccc(-n2c(C(=O)NCc3ccccc3)c3n(c2=O)CCN(C(=O)c2ccc(Br)c(Cl)c2)C3)c1` [Example 47, N-benzyl-7-(4-bromo-3-chloro-benzoyl)-3-oxo-2-(3-sulfamoylphenyl)-6,8-dihydro-5H-imidazo[1,5-a]pyrazine-1-carboxamide] cannot be ordered by EC50: over 5000 nM for the first, over 5000 nM for the second.

First: O=C(NC1(c2ccccc2)CC1)c1c2n(c(=O)n1-c1ccccc1)CCN(C(=O)c1ccc(Br)c(Cl)c1)C2 [Example 31, 7-(4-bromo-3-chloro-benzoyl)-3-oxo-2-phenyl-N-(1-phenylcyclopropyl)-6,8-dihydro-5H-imidazo[1,5-a]pyrazine-1-carboxamide]
Second: C[C@H](NC(=O)c1c2n(c(=O)n1-c1ccccc1)CCN(C(=O)c1ccc(Br)c(Cl)c1)C2)c1ccccc1 (stereo in doubt) [Example 38, 7-(4-bromo-3-chloro-benzoyl)-3-oxo-2-phenyl-N-[rac-(1S)-1-phenylethyl]-6,8-dihydro-5H-imidazo[1,5-a]pyrazine-1-carboxamide]
The EC50 of the first is higher: over 5000 nM for the first, 500 to 5000 nM for the second.

First: C[C@@H](NC(=O)c1c2n(c(=O)n1-c1ccc(OC3CC3)cc1)CCN(C(=O)c1ccc(Br)c(Cl)c1)C2)c1ccc(OC(F)(F)F)cc1F (stereo in doubt) [Example 290, 7-(4-bromo-3-chloro-benzoyl)-2-[4-(cyclopropoxy)phenyl]-3-oxo-N-[rac-(1R)-1-[2-fluoro-4-(trilfuoromethoxy)phenyl]ethyl]-6,8-dihydro-5H-imidazo[1,5-a]pyrazine-1-carboxamide]
Second: C[C@H](NC(=O)c1c2n(c(=O)n1-c1ccc(OCC(F)(F)F)cc1)CCN(C(=O)c1ccc(Br)c(Cl)c1)C2)c1ccc(O[C@H](C)C(N)=O)cc1F (stereo in doubt) [Example 361, 7-(4-bromo-3-chloro-benzoyl)-3-oxo-N-[rac-(1S)-1-[2-fluoro-4-[rac-(1R)-2-amino-1-methyl-2-oxo-ethoxy]phenyl]ethyl]-2-[4-(2,2,2-trifluoroethoxy)phenyl]-6,8-dihydro-5H-imidazo[1,5-a]pyrazine-1-carboxamide]
The EC50 of the first is higher: 500 to 5000 nM for the first, 100 to 500 nM for the second. The second is the more potent here.

`COC(=O)c1cccc(CNC(=O)c2c3n(c(=O)n2-c2ccc(OC)cc2)CCN(C(=O)c2ccc(Br)c(Cl)c2)C3)c1` [Example 165, methyl 3-[[[7-(4-bromo-3-chloro-benzoyl)-2-(4-methoxyphenyl)-3-oxo-6,8-dihydro-5H-imidazo[1,5-a]pyrazine-1-carbonyl]amino]methyl]benzoate] and `CCc1cc(OC)ccc1CNC(=O)c1c2n(c(=O)n1-c1ccc(OC)cc1)CCN(C(=O)c1ccc(Br)c(Cl)c1)C2` [Example 251, 7-(4-bromo-3-chloro-benzoyl)-N-[(2-ethyl-4-methoxy-phenyl)methyl]-2-(4-methoxyphenyl)-3-oxo-6,8-dihydro-5H-imidazo[1,5-a]pyrazine-1-carboxamide] fall in the same range of EC50: 100 to 500 nM for the first, 100 to 500 nM for the second.

First: COc1ccc(-n2c(C(=O)N[C@H](C)c3ccccc3F)c3n(c2=O)CCN(C(=O)c2ccc(Br)c(Cl)c2)C3)cc1 (stereo in doubt) [Example 161, 7-(4-bromo-3-chloro-benzoyl)-2-(4-methoxyphenyl)-3-oxo-N-[rac-(1R)-1-(2-fluorophenyl)ethyl]-6,8-dihydro-5H-imidazo[1,5-a]pyrazine-1-carboxamide]
Second: COc1ccc(CNC(=O)c2c3n(c(=O)n2-c2ccccc2)CCN(C(=O)c2ccc(Br)c(Cl)c2)C3)c(F)c1 [Example 40, 7-(4-bromo-3-chloro-benzoyl)-N-[(2-fluoro-4-methoxy-phenyl)methyl]-3-oxo-2-phenyl-6,8-dihydro-5H-imidazo[1,5-a]pyrazine-1-carboxamide]
The EC50 of the first is lower: under 100 nM for the first, 100 to 500 nM for the second.

First: N#Cc1cc(C(=O)N2CCn3c(c(C(=O)NCc4ccccc4-c4ncco4)n(-c4ccc(OC5CC5)cc4)c3=O)C2)ccc1Br [Example 433, 7-(4-bromo-3-cyano-benzoyl)-2-[4-(cyclopropxy)phenyl]-N-[(2-oxazol-2-ylphenyl)methyl]-3-oxo-6,8-dihydro-5H-imidazo[1,5-a]pyrazine-1-carboxamide]
Second: COc1ccc(CNC(=O)c2c3n(c(=O)n2-c2ccc(C#N)cc2)CCN(C(=O)c2ccc(Br)c(Cl)c2)C3)c(F)c1 [Example 164, 7-(4-bromo-3-chloro-benzoyl)-2-(4-cyanophenyl)-N-[(2-fluoro-4-methoxy-phenyl)methyl]-3-oxo-6,8-dihydro-5H-imidazo[1,5-a]pyrazine-1-carboxamide]
The EC50 of the first is lower: 100 to 500 nM for the first, 500 to 5000 nM for the second. The first is the more potent here.

First: CC(C)Oc1ccc(-n2c(C(=O)NCc3ccccc3)c3n(c2=O)CCN(C(=O)c2ccc(Br)nc2)C3)cc1 [Example 223, N-benzyl-7-(6-bromopyridine-3-carbonyl)-2-(4-isopropoxyphenyl)-3-oxo-6,8-dihydro-5H-imidazo[1,5-a]pyrazine-1-carboxamide]
Second: COc1ccc(-n2c(C(=O)NCc3ccccc3)c3n(c2=O)CCN(C(=O)c2ccc(Cl)c(Cl)c2)C3)cc1 [Example 54, N-benzyl-7-(3,4-dichlorobenzoyl)-2-(4-methoxyphenyl)-3-oxo-6,8-dihydro-5H-imidazo[1,5-a]pyrazine-1-carboxamide]
The EC50 of the first is higher: over 5000 nM for the first, 500 to 5000 nM for the second.

`COc1cccc(-n2c(C(=O)NCc3ccccc3)c3n(c2=O)CCN(C(=O)c2ccc(Br)c(Cl)c2)C3)c1` [Example 41, N-benzyl-7-(4-bromo-3-chloro-benzoyl)-2-(3-methoxyphenyl)-3-oxo-6,8-dihydro-5H-imidazo[1,5-a]pyrazine-1-carboxamide] and `O=C(NCc1ccccc1)c1c2n(c(=O)n1-c1cccc(Cl)c1)CCN(C(=O)c1ccc(Br)c(Cl)c1)C2` [Example 29, N-benzyl-7-(4-bromo-3-chloro-benzoyl)-2-(3-chlorophenyl)-3-oxo-6,8-dihydro-5H-imidazo[1,5-a]pyrazine-1-carboxamide] fall in the same range of EC50: 500 to 5000 nM for the first, 500 to 5000 nM for the second.

First: O=C(NCc1ccccc1)c1c2n(c(=O)n1-c1ccc(OC(F)(F)F)cc1)CCN(C(=O)c1ccc(Cl)c(Cl)c1)C2 [Example 131, N-benzyl-7-(3,4-dichlorobenzoyl)-3-oxo-2-[4-(trifluoromethoxy)phenyl]-6,8-dihydro-5H-imidazo[1,5-a]pyrazine-1-carboxamide]
Second: COCCOc1ccc(-n2c(C(=O)NCc3ccccc3)c3n(c2=O)CCN(C(=O)c2ccc(Br)c(Cl)c2)C3)cc1 [Example 250, N-benzyl-7-(4-bromo-3-chloro-benzoyl)-2-[4-(2-methoxyethoxy)phenyl]-3-oxo-6,8-dihydro-5H-imidazo[1,5-a]pyrazine-1-carboxamide]
The EC50 of the first is higher: over 5000 nM for the first, 100 to 500 nM for the second. The second is the more potent here.

First: Cc1nc2cc(-n3c(C(=O)NCc4ccccc4)c4n(c3=O)CCN(C(=O)c3ccc(Br)c(Cl)c3)C4)ccc2o1 [Example 418, N-benzyl-7-(4-bromo-3-chloro-benzoyl)-2-(2-methyl-1,3-benzoxazol-5-yl)-3-oxo-6,8-dihydro-5H-imidazo[1,5-a]pyrazine-1-carboxamide]
Second: CS(=O)(=O)c1ccc(-n2c(C(=O)NCc3ccccc3)c3n(c2=O)CCN(C(=O)c2ccc(Br)c(Cl)c2)C3)cc1 [Example 45, N-benzyl-7-(4-bromo-3-chloro-benzoyl)-2-(4-methylsulfonylphenyl)-3-oxo-6,8-dihydro-5H-imidazo[1,5-a]pyrazine-1-carboxamide]
The EC50 of the first is lower: 100 to 500 nM for the first, 500 to 5000 nM for the second.
